ChEMBL document CHEMBL2321768, “A multivalent approach towards linked dual-pharmacology prostaglandin F receptor agonist/carbonic anhydrase-II inhibitors for the treatment of glaucoma” (Bioorg Med Chem Lett, 2013)

Legend:
in vitro [1] = conditions: rabbit
Description: Corneal permeability in rabbit corneal tissues mounted on vertical Using chambers

in vitro [2] = conditions: human, Caco-2
Description: Permeability across human Caco2 cells

[3] = biological target: Prostaglandin F2-alpha receptor (Mus musculus, UniProt P43117)
Description: Agonist activity at FP receptor in mouse 3T3 fibroblast cells assessed as intracellular calcium mobilization by FLIPR

[4] = biological target: Prostaglandin F2-alpha receptor (Mus musculus) (UniProt P43117); assay: Intrinsic activity at FP receptor in mouse 3T3 fibroblast cells assessed as maximum compound-evoked response; format: cell-based
Chain of Prostaglandin F2-alpha receptor (Mus musculus) (P43117 whole entry): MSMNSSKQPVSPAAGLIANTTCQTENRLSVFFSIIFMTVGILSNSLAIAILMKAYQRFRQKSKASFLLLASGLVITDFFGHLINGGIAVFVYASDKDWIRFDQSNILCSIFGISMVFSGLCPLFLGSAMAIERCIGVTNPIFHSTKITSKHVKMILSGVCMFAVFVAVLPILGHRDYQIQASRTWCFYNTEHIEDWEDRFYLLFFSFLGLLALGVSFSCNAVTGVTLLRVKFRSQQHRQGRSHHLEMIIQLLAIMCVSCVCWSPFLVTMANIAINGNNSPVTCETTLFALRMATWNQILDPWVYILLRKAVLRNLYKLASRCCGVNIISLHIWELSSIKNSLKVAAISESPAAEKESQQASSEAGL

Chain of Prostaglandin F2-alpha receptor (P43117 whole entry): as above

| SMILES | Papp (in vitro [1]) [×10⁻⁶ cm/s] | Papp (in vitro [2]) [×10⁻⁶ cm/s] | EC50 [3] [µM] | Intrinsic activity [4] |
| --- | --- | --- | --- | --- |
| CCCCC[C@H](O)/C=C/[C@@H]1[C@@H](C/C=C\CCCC(=O)Nc2nnc(S(N)(=O)=O)s2)[C@@H](O)C[C@H]1O | 6.4 | 1.6 | 3.98 | 0.9 |
| CCCCC[C@H](O)/C=C/[C@@H]1[C@@H](C/C=C\CCCC(=O)NCCc2ccc(S(N)(=O)=O)cc2)[C@@H](O)C[C@H]1O | – | – | > 5.01 | – |
| O=C(O)CCC/C=C\C[C@@H]1[C@@H](CC[C@@H](O)CCc2ccccc2)[C@H](O)C[C@@H]1O [LATANOPROST ACID] | 1.2 | 3.5 | 0.00631 | 1 |
| CCCCC[C@H](O)/C=C/[C@@H]1[C@@H](C/C=C\CCCC(=O)O)[C@@H](O)C[C@H]1O [DINOPROST] | 9.7 | 3.3 | – | 1 |
| CCCCC[C@H](O)/C=C/[C@@H]1[C@@H](C/C=C\CCCC(=O)N(CC)[C@H]2CN(CCCOC)S(=O)(=O)C3SC(S(N)(=O)=O)=CC32)[C@@H](O)C[C@H]1O (some centres undefined) | – | – | > 5.01 | – |
| NS(=O)(=O)c1ccc(-n2cc([C@@H]3[C@@H](C/C=C\CCCC(=O)O)[C@@H](O)C[C@H]3O)nn2)cc1 | 1.7 | 3.3 | 2 | > 1 |
| CCN(C(=O)/C=C/[C@@H]1[C@@H](C/C=C\CCCC(=O)OC(C)C)[C@@H](O)C[C@H]1O)[C@H]1C[C@H](C)S(=O)(=O)C2SC(S(N)(=O)=O)=CC21 (some centres undefined) | – | – | > 5.01 | – |
| CC(C)OC(=O)CCC/C=C\C[C@@H]1[C@@H](/C=C/C(=O)Nc2nnc(S(N)(=O)=O)s2)[C@H](O)C[C@@H]1O | – | – | > 5.01 | – |
| CCN(C(=O)/C=C/[C@@H]1[C@@H](C/C=C\CCCC(=O)O)[C@@H](O)C[C@H]1O)[C@H]1C[C@H](C)S(=O)(=O)C2SC(S(N)(=O)=O)=CC21 (some centres undefined) | – | – | > 5.01 | – |
| COC(=O)CCC/C=C\C[C@@H]1[C@@H](c2cn(-c3ccc(S(N)(=O)=O)cc3)nn2)[C@H](O)C[C@@H]1O | 2.1 | 3.2 | > 5.01 | – |
| CC(C)OC(=O)CCC/C=C\C[C@@H]1[C@@H](CNCC(=O)Nc2nnc(S(N)(=O)=O)s2)[C@H](O)C[C@@H]1O | 3.1 | 2.1 | > 5.01 | – |
| NS(=O)(=O)c1nnc(NC(=O)CNC[C@@H]2[C@@H](C/C=C\CCCC(=O)O)[C@@H](O)C[C@H]2O)s1 | 0.94 | 3 | > 5.01 | – |
